Laboratory results published in ChEMBL document CHEMBL3407459, “Synthesis and antimicrobial activity of novel structural hybrids of benzofuroxan and benzothiazole derivatives” (2015).

Key:
Escherichia coli [1] = test: Antibacterial activity against Escherichia coli MG1655 harboring pRecA-lux assessed as maximum induction factor at 10^-11 M after 120 mins by luminometric analysis; format: functional, K-12 substr. MG1655
Escherichia coli [2] = test: Antibacterial activity against Escherichia coli MG1655 harboring pKatG-lux assessed as maximum induction factor at 10^-12 M after 120 mins by luminometric analysis; format: functional, K-12 substr. MG1655
Escherichia coli [3] = test: Antibacterial activity against Escherichia coli MG1655 harboring pColD-lux assessed as maximum induction factor at 10^-12 M after 120 mins by luminometric analysis; format: functional, K-12 substr. MG1655
Escherichia coli [4] = test: Antibacterial activity against Escherichia coli MG1655 harboring pIbpA-lux assessed as maximum induction factor at 10^-12 M after 120 mins by luminometric analysis; format: functional, K-12 substr. MG1655
[5] = Activation of quorum sensing system luxR in Escherichia coli MG1655 harboring pVFR1-lux assessed as maximum induction factor at 10^-12 M after 120 mins by luminometric analysis; details: Escherichia coli str. K-12 substr. MG1655
Escherichia coli [6] = test: Antibacterial activity against Escherichia coli MG1655 harboring pRecA-lux assessed as maximum induction factor at 10^-13 M after 120 mins by luminometric analysis; format: functional, K-12 substr. MG1655
Escherichia coli [7] = test: Antibacterial activity against Escherichia coli MG1655 harboring pColD-lux assessed as maximum induction factor at 10^-13 M after 120 mins by luminometric analysis; format: functional, K-12 substr. MG1655
Escherichia coli [8] = test: Antibacterial activity against Escherichia coli MG1655 harboring pGrpE-lux assessed as maximum induction factor at 10^-13 M after 120 mins by luminometric analysis; format: functional, K-12 substr. MG1655
[9] = Activation of quorum sensing system luxR in Escherichia coli MG1655 harboring pVFR1-lux assessed as maximum induction factor at 10^-13 M after 120 mins by luminometric analysis; details: Escherichia coli str. K-12 substr. MG1655
Escherichia coli [10] = test: Antibacterial activity against Escherichia coli MG1655 harboring pKatG-lux assessed as maximum induction factor at 10^-14 M after 120 mins by luminometric analysis; format: functional, K-12 substr. MG1655
Escherichia coli [11] = test: Antibacterial activity against Escherichia coli MG1655 harboring pRecA-lux assessed as maximum induction factor at 10^-14 M after 120 mins by luminometric analysis; format: functional, K-12 substr. MG1655
Escherichia coli [12] = test: Antibacterial activity against Escherichia coli MG1655 harboring pColD-lux assessed as maximum induction factor at 10^-14 M after 120 mins by luminometric analysis; format: functional, K-12 substr. MG1655
[13] = Activation of quorum sensing system luxR in Escherichia coli MG1655 harboring pVFR1-lux assessed as maximum induction factor at 10^-14 M after 120 mins by luminometric analysis; details: Escherichia coli str. K-12 substr. MG1655
Vibrio sp. [14] = test: Antibacterial activity against Vibrio aqamarinus VKPM B-11245 assessed as toxicity index at 10^-3 M measured for 2 hrs by luminometric analysis; format: functional
Vibrio sp. [15] = test: Antibacterial activity against Vibrio aqamarinus VKPM B-11245 assessed as toxicity index at 10^-5 M measured for 2 hrs by luminometric analysis; format: functional
Vibrio sp. [16] = test: Antibacterial activity against Vibrio aqamarinus VKPM B-11245 assessed as toxicity index at 10^-6 M measured for 2 hrs by luminometric analysis; format: functional
Vibrio sp. [17] = test: Antibacterial activity against Vibrio aqamarinus VKPM B-11245 assessed as toxicity index at 10^-12 M measured for 2 hrs by luminometric analysis; format: functional
Vibrio sp. [18] = test: Antibacterial activity against Vibrio aqamarinus VKPM B-11245 assessed as toxicity index at 10^-13 M measured for 2 hrs by luminometric analysis; format: functional
Vibrio sp. [19] = test: Antibacterial activity against Vibrio aqamarinus VKPM B-11245 assessed as toxicity index at 10^-14 M measured for 2 hrs by luminometric analysis; format: functional
Escherichia coli [20] = test: Antibacterial activity against Escherichia coli MG1655 harboring pXen7 assessed as toxicity index at 10^-3 M measured for 2 hrs by luminometric analysis; format: functional, K-12 substr. MG1655
Escherichia coli [21] = test: Antibacterial activity against Escherichia coli MG1655 harboring pXen7 assessed as toxicity index at 10^-4 M measured for 2 hrs by luminometric analysis; format: functional, K-12 substr. MG1655
Escherichia coli [22] = test: Antibacterial activity against Escherichia coli MG1655 harboring pXen7 assessed as toxicity index at 10^-6 M measured for 2 hrs by luminometric analysis; format: functional, K-12 substr. MG1655
Escherichia coli [23] = test: Antibacterial activity against Escherichia coli MG1655 harboring pXen7 assessed as toxicity index at 10^-7 M measured for 2 hrs by luminometric analysis; format: functional, K-12 substr. MG1655
Escherichia coli [24] = test: Antibacterial activity against Escherichia coli MG1655 harboring pXen7 assessed as toxicity index at 10^-11 M measured for 2 hrs by luminometric analysis; format: functional, K-12 substr. MG1655
Escherichia coli [25] = test: Antibacterial activity against Escherichia coli MG1655 harboring pKatG-lux assessed as maximum induction factor at 10^-4 M after 120 mins by luminometric analysis; format: functional, K-12 substr. MG1655
Escherichia coli [26] = test: Antibacterial activity against Escherichia coli MG1655 harboring pSoxS-lux assessed as maximum induction factor at 10^-5 M after 120 mins by luminometric analysis; format: functional, K-12 substr. MG1655
Escherichia coli [27] = test: Antibacterial activity against Escherichia coli MG1655 harboring pKatG-lux assessed as maximum induction factor at 10^-5 M after 120 mins by luminometric analysis; format: functional, K-12 substr. MG1655
Escherichia coli [28] = test: Antibacterial activity against Escherichia coli MG1655 harboring pRecA-lux assessed as maximum induction factor at 10^-5 M after 120 mins by luminometric analysis; format: functional, K-12 substr. MG1655
Escherichia coli [29] = test: Antibacterial activity against Escherichia coli MG1655 harboring pGrpE-lux assessed as maximum induction factor at 10^-6 M after 120 mins by luminometric analysis; format: functional, K-12 substr. MG1655
Escherichia coli [30] = test: Antibacterial activity against Escherichia coli MG1655 harboring pIbpA-lux assessed as maximum induction factor at 10^-6 M after 120 mins by luminometric analysis; format: functional, K-12 substr. MG1655
Escherichia coli [31] = test: Antibacterial activity against Escherichia coli MG1655 harboring pSoxS-lux assessed as maximum induction factor at 10^-7 M after 120 mins by luminometric analysis; format: functional, K-12 substr. MG1655
Escherichia coli [32] = test: Antibacterial activity against Escherichia coli MG1655 harboring pSoxS-lux assessed as maximum induction factor at 10^-8 M after 120 mins by luminometric analysis; format: functional, K-12 substr. MG1655
Escherichia coli [33] = test: Antibacterial activity against Escherichia coli MG1655 harboring pIbpA-lux assessed as maximum induction factor at 10^-8 M after 120 mins by luminometric analysis; format: functional, K-12 substr. MG1655
Escherichia coli [34] = test: Antibacterial activity against Escherichia coli MG1655 harboring pKatG-lux assessed as maximum induction factor at 10^-9 M after 120 mins by luminometric analysis; format: functional, K-12 substr. MG1655
Escherichia coli [35] = test: Antibacterial activity against Escherichia coli MG1655 harboring pColD-lux assessed as maximum induction factor at 10^-9 M after 120 mins by luminometric analysis; format: functional, K-12 substr. MG1655
Escherichia coli [36] = test: Antibacterial activity against Escherichia coli MG1655 harboring pSoxS-lux assessed as maximum induction factor at 10^-10 M after 120 mins by luminometric analysis; format: functional, K-12 substr. MG1655
Escherichia coli [37] = test: Antibacterial activity against Escherichia coli MG1655 harboring pKatG-lux assessed as maximum induction factor at 10^-10 M after 120 mins by luminometric analysis; format: functional, K-12 substr. MG1655
Escherichia coli [38] = test: Antibacterial activity against Escherichia coli MG1655 harboring pColD-lux assessed as maximum induction factor at 10^-10 M after 120 mins by luminometric analysis; format: functional, K-12 substr. MG1655
Escherichia coli [39] = test: Antibacterial activity against Escherichia coli MG1655 harboring pIbpA-lux assessed as maximum induction factor at 10^-10 M after 120 mins by luminometric analysis; format: functional, K-12 substr. MG1655
[40] = Activation of quorum sensing system luxR in Escherichia coli MG1655 harboring pVFR1-lux assessed as maximum induction factor at 10^-10 M after 120 mins by luminometric analysis; details: Escherichia coli str. K-12 substr. MG1655

SMILES: O=[N+]([O-])c1cc([N+](=O)[O-])c2no[n+]([O-])c2c1Sc1nc2ccccc2s1
- Activity (Escherichia coli [1]): 1.03
- Activity (Escherichia coli [2]): 1.12
- Activity (Escherichia coli [3]): 1.1
- Activity (Escherichia coli [4]): 1.25
- Activity [5]: 2.96
- Activity (Escherichia coli [6]): 0.98
- Activity (Escherichia coli [7]): 1.01
- Activity (Escherichia coli [8]): 0.96
- Activity [9]: 1.77
- Activity (Escherichia coli [10]): 0.78
- Activity (Escherichia coli [11]): 1.07
- Activity (Escherichia coli [12]): 1.07
- Activity [13]: 2.87
- Activity (Vibrio sp. [14]): 98.83
- Activity (Vibrio sp. [15]): 98.83
- Activity (Vibrio sp. [16]): 73.17
- Activity (Vibrio sp. [17]): 0
- Activity (Vibrio sp. [18]): 3.44
- Activity (Vibrio sp. [19]): 5.94
- Activity (Escherichia coli [20]): 99.87
- Activity (Escherichia coli [21]): 98
- Activity (Escherichia coli [22]): 10.3
- Activity (Escherichia coli [23]): 0
- Activity (Escherichia coli [24]): 0
- Activity (Escherichia coli [25]): 0.3
- Activity (Escherichia coli [26]): 0.99
- Activity (Escherichia coli [27]): 0.71
- Activity (Escherichia coli [28]): 0.93
- Activity (Escherichia coli [29]): 1.15
- Activity (Escherichia coli [30]): 1.28
- Activity (Escherichia coli [31]): 1.02
- Activity (Escherichia coli [32]): 1.27
- Activity (Escherichia coli [33]): 1.18
- Activity (Escherichia coli [34]): 0.96
- Activity (Escherichia coli [35]): 1.05
- Activity (Escherichia coli [36]): 1.33
- Activity (Escherichia coli [37]): 1.02
- Activity (Escherichia coli [38]): 1.04
- Activity (Escherichia coli [39]): 1.14
- Activity [40]: 3.59
